Experiments:
[1] = biological target: T1, prostacyclin receptor (IPR) (Homo sapiens, UniProt P43119); test: cAMP accumulation (LANCE) in human lung fibroblasts, endogenous receptor; partial agonist; format: cell-based
T1 construct: gene PTGIR

[2] = biological target: T1, prostacyclin receptor (IPR); test: cAMP accumulation (LANCE) in human lung fibroblasts, endogenous receptor; about […] blocked by IPR antagonist RO-1138452; format: cell-based

T1 sequence (P43119 1-383): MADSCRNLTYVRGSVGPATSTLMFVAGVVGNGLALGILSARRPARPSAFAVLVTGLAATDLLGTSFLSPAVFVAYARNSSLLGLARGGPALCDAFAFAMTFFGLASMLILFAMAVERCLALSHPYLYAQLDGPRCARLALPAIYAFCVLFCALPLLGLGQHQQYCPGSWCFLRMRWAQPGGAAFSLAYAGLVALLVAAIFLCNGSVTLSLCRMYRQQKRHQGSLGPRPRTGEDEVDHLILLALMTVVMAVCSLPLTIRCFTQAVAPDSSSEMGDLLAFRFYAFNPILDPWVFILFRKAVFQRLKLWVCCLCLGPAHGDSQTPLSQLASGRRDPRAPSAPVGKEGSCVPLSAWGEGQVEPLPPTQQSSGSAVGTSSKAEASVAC

Compound: CC(C)N(CCCCOCC(=O)O)c1cnc(-c2ccccc2)c(-c2ccccc2)n1 [MRE-269, {4-[(5,6-Diphenylpyrazin-2-yl)(isopropyl)amino]butoxy}acetic Acid]
- EC50 [1]: 200 nM

Compound: CCCCC[C@H](O)CC[C@@H]1[C@H]2Cc3cccc(OCC(=O)O)c3C[C@H]2C[C@H]1O [treprostinil]
- EC50 [2]: 64 nM

Reference: PMC8116805, “Inhibition of the Proliferation of Human Lung Fibroblasts by Prostacyclin Receptor Agonists is Linked to a Sustained cAMP Signal in the Nucleus” (Frontiers in Pharmacology, 2021)
